# Results: patent US7488832B2, “Azolylacylguanidines as β-secretase inhibitors” (Wyeth, priority 2005, dated 2009)
# Target: human BACE1 (Homo sapiens, UniProt P56817)
# Experiment: Fluorescent kinetic assay, human BACE1 (FRET peptide substrate WABC-6);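 note: fluorescence monitored at excitation 320 nm and emission 420 nm over 30 min, with the substrate cleavage rate taken as the linear slope of the signal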
# Type: biochemical
# Conditions: not given
# Chain of human BACE1 (P56817 46-501): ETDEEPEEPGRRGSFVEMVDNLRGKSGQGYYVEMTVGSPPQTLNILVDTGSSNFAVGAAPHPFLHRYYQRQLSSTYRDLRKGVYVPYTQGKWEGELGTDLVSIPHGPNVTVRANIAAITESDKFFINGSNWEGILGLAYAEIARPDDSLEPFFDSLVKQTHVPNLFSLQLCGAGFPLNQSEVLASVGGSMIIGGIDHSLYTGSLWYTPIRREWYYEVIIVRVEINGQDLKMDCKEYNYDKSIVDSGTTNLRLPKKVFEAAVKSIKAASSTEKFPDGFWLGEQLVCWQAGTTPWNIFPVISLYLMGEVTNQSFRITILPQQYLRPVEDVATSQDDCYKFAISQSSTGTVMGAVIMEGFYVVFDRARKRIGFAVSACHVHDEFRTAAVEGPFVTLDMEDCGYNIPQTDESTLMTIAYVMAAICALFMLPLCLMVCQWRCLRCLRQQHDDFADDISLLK
row,IC50 [µM],Compound
1,0.11 to 1,N/C(=N/C(=O)Cn1c(-c2ccccc2)ccc1C12CC3CC(CC(C3)C1)C2)NCCCO [Example 395]

# Same assay, conditions: fluorescent kinetic assay, 25 μM substrate WABC-6, pH 4.5, room temperature; read-out: IC50 (μM) BACE 1
row,Compound,IC50 [µM]
1,COCCCNC(N)=NC(=O)Cn1c(-c2ccccc2)ccc1C12CC3CC(CC(C3)C1)C2 [Example 414],0.11 to 1
2,"CCC[C@H]1CC[C@H](c2ccc(-c3ccccc3)n2CC(=O)/N=C(\N)NCCCC#N)CC1 [Example 473, N-{(1E)-amino[(3-cyanopropyl)amino]methylene}-2-[2-phenyl-5-(trans-4-propylcyclohexyl)-1H-pyrrol-1-yl]acetamide]",1.1 to 5
3,CC(O)CNC(N)=NC(=O)Cn1c(-c2ccccc2)ccc1C12CC3CC(CC(C3)C1)C2 (stereo not drawn) [Example 405],0.11 to 1
4,N=C(N)NC(=O)Cn1c(-c2ccccc2)ccc1-c1ccccc1C(F)(F)F [Example 452],1.1 to 5
5,NC(=NC(=O)Cn1c(-c2ccccc2)ccc1C12CC3CC(CC(C3)C1)C2)NCC(F)(F)F [Example 408],0.11 to 1
6,NC(=NC(=O)Cn1c(-c2ccccc2)ccc1-c1ccc(C(=O)NCC(F)(F)C(F)(F)F)cc1)NCCCO [Example 472],1.1 to 5
7,"CCS(=O)(=O)N/C(N)=N\C(=O)Cn1c(-c2ccccc2)ccc1C12CC3CC(CC(C3)C1)C2 [Example 431, 2-[2-(1-adamantyl)-5-phenyl-1H-pyrrol-1-yl]-N-{(1Z)-amino[(ethyl-sulfonyl)amino]methylene}acetamide]",0.11 to 1
8,NC(N)=NC(=O)Cn1c(-c2ccccc2)ccc1-c1ccc(C(=O)N2CCSC2)cc1 [Example 169],1.1 to 5
9,N#CCCCNC(=N)NC(=O)Cn1c(-c2ccccc2)ccc1C12CC3CC(CC(C3)C1)C2 [Example 393],0.11 to 1
10,C=CCCOc1ccc(-c2ccc(-c3ccccc3)n2CC(=O)N=C(N)N)cc1 [Example 273],1.1 to 5
11,CC(C)CNC(N)=NC(=O)Cn1c(-c2ccccc2)ccc1C12CC3CC(CC(C3)C1)C2 [Example 407],1.1 to 5
12,CC(O)CNC(N)=NC(=O)Cn1c(-c2ccccc2)ccc1C12CC3CC(CC(C3)C1)C2 (stereo not drawn) [Example 404],0.11 to 1
13,Cc1ccc(-c2ccc(-c3ccc(Cl)s3)n2CC(=O)N=C(N)N)cc1 [Example 110],1.1 to 5
14,"CCNC(=O)c1ccc(-c2ccc(-c3ccccc3)n2CC(=O)NC(N)=NCCCO)cc1 [Example 461, N-Ethyl-4-(1-{2-[N′-(3-hydroxy-propyl)-guanidino]-2-oxo-ethyl}-5-phenyl-1H-pyrrol-2-yl)-benzamide]",0.11 to 1

# Other lines, results leading:
row,IC50 [µM],Compound
1,1.1 to 5,N#Cc1ccc(-c2ccc(-c3ccccc3)n2CC(=O)N=C(N)NCCCO)cc1 [Example 318]
2,0.11 to 1,CCCNC(=O)c1ccc(-c2ccc(-c3ccccc3)n2CC(=O)N=C(N)NCCCO)cc1 [Example 467]
3,0.11 to 1,CCCCOc1ccc(-c2ccc(-c3ccccc3)n2CC(=O)N=C(N)NCCCO)cc1 [Example 324]
4,0.11 to 1,CCC(C)NC(=O)c1ccc(-c2ccc(-c3ccccc3)n2CC(=O)N=C(N)NCCCO)cc1 (stereo not drawn) [Example 469]
5,0.11 to 1,CCCCOc1ccc(-c2ccc(-c3ccccc3)n2CC(=O)N=C(N)NCc2ccc(F)c(F)c2F)cc1 [Example 334]
6,1.1 to 5,N#Cc1ccc(-c2ccc(-c3ccccc3)n2CC(=O)N=C(N)NCc2ccc(F)c(F)c2F)cc1 [Example 330]
7,1.1 to 5,CC(C)c1ccc(-c2ccc(-c3ccccc3)n2CC(=O)N=C(N)NCc2ccc(F)c(F)c2F)cc1 [Example 331]
8,0.11 to 1,COCCNC(=O)c1ccc(-c2ccc(-c3ccccc3)n2CC(=O)N=C(N)NCCCO)cc1 [Example 468]
9,0.11 to 1,CCCc1ccc(-c2ccc(-c3ccccc3)n2CC(=O)N=C(N)NCCCO)cc1 [Example 320]
10,0.11 to 1,CCCCCc1ccc(-c2ccc(-c3ccccc3)n2CC(=O)N=C(N)NCCCO)cc1 [Example 323]
11,0.11 to 1,CCCc1ccc(-c2ccc(-c3ccccc3)n2CC(=O)N=C(N)NCc2ccc(F)c(F)c2F)cc1 [Example 332]
12,0.11 to 1,C=CCNC(=O)c1ccc(-c2ccc(-c3ccccc3)n2CC(=O)N=C(N)NCc2cccc(N)c2)cc1 [Example 426]
